From US8017633B2, “Roflumilast for the treatment of diabetes mellitus” (Nycomed GmbH, priority 2005, dated 2011)

Key:
Format in all cases: in vivo, mouse
[1] = tested on: C57BLKS db/db mice; assay: Daily water intake of db/db mice during once-daily oral treatment
Method: (§1) Female C57BLKS db/db mice obtained from M&B A/S (8680 Ry, Denmark) were used in the studies at 10 to 11 weeks of age. Mice were housed 10 per cage and allowed free access to water and standard laboratory diet for rodents (chow 3433, Provimi Kliba SA, 4303 Kaiseraugst, Switzerland).
(§2) Mice were treated with vehicle, Roflumilast or Roflumilast-N-Oxide, respectively once daily in the morning. Roflumilast or Roflumilast-N-Oxide was suspended in 4% methocel and applied via oral gavage using oral feeding & dosing needles (outer diameter: 1.5 mm, TSE GmbH, 61350 Bad Homburg, Germany). A volume of 10 ml/kg body weight was administered for each dose.
(§3) The daily intake of food (chow 3433) and water was measured per animal (total daily intake of food divided by the number of animals) before and during the treatment with Roflumilast or Roflumilast-N-Oxide.

[2] = tested on: C57BLKS db/db mice; assay: Daily food intake of db/db mice during once-daily oral treatment
Method: as §1, §2, §3

[3] = tested on: C57BLKS db/db mice; assay: 10 days study: fasting blood glucose and oral glucose tolerance in db/db mice; conditions: for Blood glucose (15 min after glucose application) / Blood glucose (before glucose application): fasted 24 h; for Blood glucose (15 min after glucose application): 15 min after oral 1 g/kg glucose; for Blood glucose (before glucose application): 1 h after dose
Method: as §1
Mice were allowed to acclimate to the local animal facilities for 1 week and retro-orbital blood samples were obtained 3 to 7 days prior to the start of the study.
as §2
10 days studies: Mice were treated with vehicle, Roflumilast or Roflumilast-N-Oxide once daily in the morning. On day 9, mice were fasted for 24 hours by removing standard diet for laboratory animals 1 hour after drug application. On day 10, one hour after administration of vehicle, Roflumilast or Roflumilast-N-Oxide glucose tolerance was assessed by oral application of 1 g/kg/10 ml glucose. Blood was sampled before and 15 minutes after glucose application and levels of glucose (accu-chek, Roche Diagnostics GmbH, 68298 Mannheim, Germany) were measured.

[4] = 1 mg/kg group, Day −1, before first application
[5] = 1 mg/kg group, Day −2, before first application
[6] = 1 mg/kg group, Day −3, before first application
[7] = 1 mg/kg group, Day −4, before first application
[8] = 1 mg/kg group, Day −5, before first application
[9] = 3 mg/kg group, Day −1, before first application
[10] = 3 mg/kg group, Day −2, before first application
[11] = 3 mg/kg group, Day −3, before first application
[12] = 3 mg/kg group, Day −4, before first application
[13] = 3 mg/kg group, Day −5, before first application
[14] = 10 mg/kg group, Day −1, before first application
[15] = 10 mg/kg group, Day −2, before first application
[16] = 10 mg/kg group, Day −3, before first application
[17] = 10 mg/kg group, Day −4, before first application
[18] = 10 mg/kg group, Day −5, before first application
[19] = 10 mg/kg oral once daily, Day 1
[20] = 10 mg/kg oral once daily, Day 2
[21] = 10 mg/kg oral once daily, Day 4
[22] = 10 mg/kg oral once daily, Day 5
[23] = 10 mg/kg oral once daily, Day 6
[24] = 10 mg/kg oral once daily, Day 7
[25] = 10 mg/kg oral once daily, Day 8
[26] = 30 mg/kg group, Day −1, before first application
[27] = 30 mg/kg group, Day −2, before first application
[28] = 30 mg/kg group, Day −3, before first application
[29] = 30 mg/kg group, Day −4, before first application
[30] = 30 mg/kg group, Day −5, before first application
[31] = 30 mg/kg oral once daily, Day 1
[32] = 30 mg/kg oral once daily, Day 2
[33] = 30 mg/kg oral once daily, Day 4
[34] = 30 mg/kg oral once daily, Day 5
[35] = 30 mg/kg oral once daily, Day 6
[36] = 30 mg/kg oral once daily, Day 7
[37] = 30 mg/kg oral once daily, Day 8
[38] = db/db mice, treatment once daily oral
[39] = Rof-N-Oxide 1 mg/kg oral once daily 10 days
[40] = Rof-N-Oxide 3 mg/kg oral once daily 10 days
[41] = Rof-N-Oxide 10 mg/kg oral once daily 10 days
[42] = Rof-N-Oxide 30 mg/kg oral once daily 10 days

## O=C(Nc1c(Cl)c[n+]([O-])cc1Cl)c1ccc(OC(F)F)c(OCC2CC2)c1 [Rof-N-Oxide, 3-cyclopropylmethoxy-4-difluoromethoxy-N-(3,5-dichloro-1-oxido-pyridin-4-yl)benzamide]
[1]; [4]
  Daily water intake before the first application: 8.6 g per mouse
[1]; [5]
  Daily water intake before the first application: 7.9 g per mouse
[1]; [6]
  Daily water intake before the first application: 8.4 g per mouse
[1]; [7]
  Daily water intake before the first application: 9.4 g per mouse
[1]; [8]
  Daily water intake before the first application: 9.2 g per mouse
[1]; 1 mg/kg oral once daily, Day 1
  Daily water intake on the days of application: 7.6 g per mouse
[1]; 1 mg/kg oral once daily, Day 2
  Daily water intake on the days of application: 6.9 g per mouse
[1]; 1 mg/kg oral once daily, Day 4
  Daily water intake on the days of application: 7.1 g per mouse
[1]; 1 mg/kg oral once daily, Day 5
  Daily water intake on the days of application: 8.0 g per mouse
[1]; 1 mg/kg oral once daily, Day 6
  Daily water intake on the days of application: 7.7 g per mouse
[1]; 1 mg/kg oral once daily, Day 7
  Daily water intake on the days of application: 8.5 g per mouse
[1]; 1 mg/kg oral once daily, Day 8
  Daily water intake on the days of application: 7.2 g per mouse
[1]; [9]
  Daily water intake before the first application: 9.1 g per mouse
[1]; [10]
  Daily water intake before the first application: 7.6 g per mouse
[1]; [11]
  Daily water intake before the first application: 7.6 g per mouse
[1]; [12]
  Daily water intake before the first application: 4.3 g per mouse
[1]; [13]
  Daily water intake before the first application: 9.8 g per mouse
[1]; 3 mg/kg oral once daily, Day 1
  Daily water intake on the days of application: 5.1 g per mouse
[1]; 3 mg/kg oral once daily, Day 2
  Daily water intake on the days of application: 5.9 g per mouse
[1]; 3 mg/kg oral once daily, Day 4
  Daily water intake on the days of application: 5.9 g per mouse
[1]; 3 mg/kg oral once daily, Day 5
  Daily water intake on the days of application: 5.7 g per mouse
[1]; 3 mg/kg oral once daily, Day 6
  Daily water intake on the days of application: 5.4 g per mouse
[1]; 3 mg/kg oral once daily, Day 7
  Daily water intake on the days of application: 5.4 g per mouse
[1]; 3 mg/kg oral once daily, Day 8
  Daily water intake on the days of application: 5.2 g per mouse
[1]; [14]
  Daily water intake before the first application: 9.6 g per mouse
[1]; [15]
  Daily water intake before the first application: 8.2 g per mouse
[1]; [16]
  Daily water intake before the first application: 7.9 g per mouse
[1]; [17]
  Daily water intake before the first application: 9.6 g per mouse
[1]; [18]
  Daily water intake before the first application: 12.1 g per mouse
[1]; [19]
  Daily water intake on the days of application: 2.9 g per mouse
[1]; [20]
  Daily water intake on the days of application: 3.5 g per mouse
[1]; [21]
  Daily water intake on the days of application: 3.2 g per mouse
[1]; [22]
  Daily water intake on the days of application: 3.7 g per mouse
[1]; [23]
  Daily water intake on the days of application: 3.3 g per mouse
[1]; [24]
  Daily water intake on the days of application: 3.0 g per mouse
[1]; [25]
  Daily water intake on the days of application: 4.1 g per mouse
[1]; [26]
  Daily water intake before the first application: 10.1 g per mouse
[1]; [27]
  Daily water intake before the first application: 9.4 g per mouse
[1]; [28]
  Daily water intake before the first application: 10.0 g per mouse
[1]; [29]
  Daily water intake before the first application: 12.4 g per mouse
[1]; [30]
  Daily water intake before the first application: 10.1 g per mouse
[1]; [31]
  Daily water intake on the days of application: 2.3 g per mouse
[1]; [32]
  Daily water intake on the days of application: 2.4 g per mouse
[1]; [33]
  Daily water intake on the days of application: 2.6 g per mouse
[1]; [34]
  Daily water intake on the days of application: 3.0 g per mouse
[1]; [35]
  Daily water intake on the days of application: 2.9 g per mouse
[1]; [36]
  Daily water intake on the days of application: 3.3 g per mouse
[1]; [37]
  Daily water intake on the days of application: 2.5 g per mouse
[1]; [38]
  Effect on increased daily water intake (summary in words): reduced
[2]; [4]
  Daily food intake before the first application: 6.4 g per mouse
[2]; [5]
  Daily food intake before the first application: 6.4 g per mouse
[2]; [6]
  Daily food intake before the first application: 6.4 g per mouse
[2]; [7]
  Daily food intake before the first application: 5.9 g per mouse
[2]; [8]
  Daily food intake before the first application: 6.0 g per mouse
[2]; 1 mg/kg oral once daily, Day 1
  Daily food intake on the days of application: 5.4 g per mouse
[2]; 1 mg/kg oral once daily, Day 2
  Daily food intake on the days of application: 5.4 g per mouse
[2]; 1 mg/kg oral once daily, Day 3
  Daily food intake on the days of application: 5.8 g per mouse
[2]; 1 mg/kg oral once daily, Day 4
  Daily food intake on the days of application: 5.5 g per mouse
[2]; 1 mg/kg oral once daily, Day 5
  Daily food intake on the days of application: 5.6 g per mouse
[2]; 1 mg/kg oral once daily, Day 6
  Daily food intake on the days of application: 5.8 g per mouse
[2]; 1 mg/kg oral once daily, Day 7
  Daily food intake on the days of application: 5.4 g per mouse
[2]; 1 mg/kg oral once daily, Day 8
  Daily food intake on the days of application: 5.5 g per mouse
[2]; [9]
  Daily food intake before the first application: 6.1 g per mouse
[2]; [10]
  Daily food intake before the first application: 6.1 g per mouse
[2]; [11]
  Daily food intake before the first application: 6.4 g per mouse
[2]; [12]
  Daily food intake before the first application: 6.4 g per mouse
[2]; [13]
  Daily food intake before the first application: 5.5 g per mouse
[2]; 3 mg/kg oral once daily, Day 1
  Daily food intake on the days of application: 4.9 g per mouse
[2]; 3 mg/kg oral once daily, Day 2
  Daily food intake on the days of application: 4.9 g per mouse
[2]; 3 mg/kg oral once daily, Day 3
  Daily food intake on the days of application: 4.5 g per mouse
[2]; 3 mg/kg oral once daily, Day 4
  Daily food intake on the days of application: 4.5 g per mouse
[2]; 3 mg/kg oral once daily, Day 5
  Daily food intake on the days of application: 4.6 g per mouse
[2]; 3 mg/kg oral once daily, Day 6
  Daily food intake on the days of application: 4.9 g per mouse
[2]; 3 mg/kg oral once daily, Day 7
  Daily food intake on the days of application: 4.3 g per mouse
[2]; 3 mg/kg oral once daily, Day 8
  Daily food intake on the days of application: 4.2 g per mouse
[2]; [14]
  Daily food intake before the first application: 6.5 g per mouse
[2]; [15]
  Daily food intake before the first application: 6.4 g per mouse
[2]; [16]
  Daily food intake before the first application: 6.4 g per mouse
[2]; [17]
  Daily food intake before the first application: 6.2 g per mouse
[2]; [18]
  Daily food intake before the first application: 6.0 g per mouse
[2]; [19]
  Daily food intake on the days of application: 2.9 g per mouse
[2]; [20]
  Daily food intake on the days of application: 3.3 g per mouse
[2]; 10 mg/kg oral once daily, Day 3
  Daily food intake on the days of application: 3.5 g per mouse
[2]; [21]
  Daily food intake on the days of application: 2.9 g per mouse
[2]; [22]
  Daily food intake on the days of application: 3.0 g per mouse
[2]; [23]
  Daily food intake on the days of application: 3.1 g per mouse
[2]; [24]
  Daily food intake on the days of application: 2.6 g per mouse
[2]; [25]
  Daily food intake on the days of application: 3.8 g per mouse
[2]; [26]
  Daily food intake before the first application: 6.3 g per mouse
[2]; [27]
  Daily food intake before the first application: 6.2 g per mouse
[2]; [28]
  Daily food intake before the first application: 6.5 g per mouse
[2]; [29]
  Daily food intake before the first application: 6.4 g per mouse
[2]; [30]
  Daily food intake before the first application: 5.8 g per mouse
[2]; [31]
  Daily food intake on the days of application: 1.4 g per mouse
[2]; [32]
  Daily food intake on the days of application: 0.9 g per mouse
[2]; 30 mg/kg oral once daily, Day 3
  Daily food intake on the days of application: 1.2 g per mouse
[2]; [33]
  Daily food intake on the days of application: 0.8 g per mouse
[2]; [34]
  Daily food intake on the days of application: 0.9 g per mouse
[2]; [35]
  Daily food intake on the days of application: 1.1 g per mouse
[2]; [36]
  Daily food intake on the days of application: 0.7 g per mouse
[2]; [37]
  Daily food intake on the days of application: 0.6 g per mouse
[2]; [38]
  Effect on daily food intake (summary in words): reduce in a dose-dependent manner
[3]; [39]
  Blood glucose (15 min after glucose application): 595 mg/dL
  Blood glucose (before glucose application): 220 mg/dL
[3]; [40]
  Blood glucose (15 min after glucose application): 467 mg/dL
  Blood glucose (before glucose application): 174 mg/dL
[3]; [41]
  Blood glucose (15 min after glucose application): 423 mg/dL
  Blood glucose (before glucose application): 139 mg/dL
[3]; [42]
  Blood glucose (15 min after glucose application): 326 mg/dL
  Blood glucose (before glucose application): 146 mg/dL
[3]; db/db mice
  Effect on fasting blood glucose levels (summary in words): reduce
  Effect on postprandial blood glucose levels (summary in words): reduce
